The values below come from patent publication US6979686B1, “Substituted pyrazoles as p38 kinase inhibitors” (Pharmacia Corporation, priority 2001, dated 2005).

pIC50: −log10 of the molar value.

The target of the first test is T1, human p38 kinase alpha (Homo sapiens, UniProt Q16539).
T1 construct: GST (N, cleaved yes); made in house; host or cells: E. coli DH10B
T1 sequence (Q16539 whole entry): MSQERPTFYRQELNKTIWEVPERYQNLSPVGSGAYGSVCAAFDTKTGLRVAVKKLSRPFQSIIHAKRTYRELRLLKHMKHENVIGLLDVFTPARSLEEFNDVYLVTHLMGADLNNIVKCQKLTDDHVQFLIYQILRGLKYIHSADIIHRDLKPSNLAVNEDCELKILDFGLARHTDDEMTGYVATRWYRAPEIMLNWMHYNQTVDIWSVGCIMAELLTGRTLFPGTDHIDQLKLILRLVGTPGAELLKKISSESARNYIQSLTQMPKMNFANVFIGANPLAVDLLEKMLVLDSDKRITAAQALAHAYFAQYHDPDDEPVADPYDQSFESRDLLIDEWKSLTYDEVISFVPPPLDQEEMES
Put plainly: p38 kinase in vitro assay, phosphorylation of biotinylated PHAS-I with 32P-ATP. It is filed as biochemical. To be noted: @ 10.0 uM.
On to `CCCCC(C)NC(=O)Cn1nc(-c2ccc(F)cc2)c(-c2ccncc2)c1C` (stereo not shown) [Example B-2319], for which the “P38 alpha kinase % inhib @ conc.” value is 75.0% @.

With `Cc1c(-c2ccncc2)c(-c2ccc(F)cc2)nn1CC(=O)NC(Cc1ccccc1)c1ccccc1` (stereo not shown) [Example B-2320], the “P38 alpha kinase % inhib @ conc.” value was 44.0% @. Same read-out and setting: for `Cc1c(-c2ccncc2)c(-c2ccc(F)cc2)nn1CC(=O)NC1Cc2ccccc2C1` [Example B-2321] the value was 69.0% @; for `Cc1c(-c2ccncc2)c(-c2ccc(F)cc2)nn1CC(=O)NC1CCSC1=O` (stereo not shown) [Example B-2323], 69.0% @; for `COCC(C)NC(=O)Cn1nc(-c2ccc(F)cc2)c(-c2ccncc2)c1C` (stereo not shown) [Example B-2325], 60.0% @. Regarding `Cc1c(-c2ccncc2)c(-c2ccc(F)cc2)nn1CC(=O)NC1CCCc2ccccc21` (stereo not shown) [Example B-2326], the “P38 alpha kinase % inhib @ conc.” value came to 76.0% @. Still for that read-out and setting: for `CCOC(=O)N1CCC(NC(=O)Cn2nc(-c3ccc(F)cc3)c(-c3ccncc3)c2C)CC1` [Example B-2329] the value was 72.0% @. Still for that read-out and setting: the result for `Cc1c(-c2ccncc2)c(-c2ccc(F)cc2)nn1CC(=O)NC1CCC1` [Example B-2330] reads 81.0% @; that for `Cc1c(-c2ccncc2)c(-c2ccc(F)cc2)nn1CC(=O)NC(C)c1cccc2ccccc12` (stereo not shown) [Example B-2331], 74.0% @; that for `Cc1c(-c2ccncc2)c(-c2ccc(F)cc2)nn1CC(=O)NC1CCN(Cc2ccccc2)CC1` [Example B-2332], 70.0% @. For the molecule `Cc1c(-c2ccncc2)c(-c2ccc(F)cc2)nn1CC(=O)NC1CCCCCC1` [Example B-2335], the “P38 alpha kinase % inhib @ conc.” value turned out to be 82.0% @.

Consider `CCN(CC)CC(C)NC(=O)Cn1nc(-c2ccc(F)cc2)c(-c2ccncc2)c1C` (stereo not shown) [Example B-2337], for which the “P38 alpha kinase % inhib @ conc.” value came out at 46.0% @. Regarding `Cc1c(-c2ccncc2)c(-c2ccc(F)cc2)nn1CC(=O)NC1CCN(Cc2ccccc2)C1` (stereo not shown) [Example B-2338], the “P38 alpha kinase % inhib @ conc.” value was determined as 73.0% @. Consider `Cc1c(-c2ccncc2)c(-c2ccc(F)cc2)nn1CC(=O)NC(C)CCc1ccccc1` (stereo not shown) [Example B-2340], for which the “P38 alpha kinase % inhib @ conc.” value is 35.0% @.

As to `Cc1c(-c2ccncc2)c(-c2ccc(F)cc2)nn1CC(=O)NC1CC1` [Example B-2341], the “P38 alpha kinase % inhib @ conc.” value was determined as 75.0% @.

With `CCOC(=O)CC(C)NC(=O)Cn1nc(-c2ccc(F)cc2)c(-c2ccncc2)c1C` (stereo not shown) [Example B-2343], the “P38 alpha kinase % inhib @ conc.” value turned out to be 43.0% @. The same measure, in the same setting: the result for `Cc1c(-c2ccncc2)c(-c2ccc(F)cc2)nn1CC(=O)NC(C)c1ccc(Br)cc1` (stereo not shown) [Example B-2344] reads 71.0% @; that for `Cc1c(-c2ccncc2)c(-c2ccc(F)cc2)nn1CC(=O)NC1CCCCC1C1CCCCC1` (stereo not shown) [Example B-2346], 45.0% @. As to `Cc1c(-c2ccncc2)c(-c2ccc(F)cc2)nn1CC(=O)NC1CCCCC1` [Example B-2347], the “P38 alpha kinase % inhib @ conc.” value came to 49.0% @. Regarding `Cc1c(-c2ccncc2)c(-c2ccc(F)cc2)nn1CC(=O)NC1CCSc2ccccc21` (stereo not shown) [Example B-2348], the “P38 alpha kinase % inhib @ conc.” value is 76.0% @. On the same count and under the same terms, the result for `COC(=O)C(Cc1ccc([N+](=O)[O-])cc1)NC(=O)Cn1nc(-c2ccc(F)cc2)c(-c2ccncc2)c1C` (stereo not shown) [Example B-2349] reads 75.0% @; that for `Cc1c(-c2ccncc2)c(-c2ccc(F)cc2)nn1CC(=O)NC1CCC(C(C)(C)C)CC1` (stereo not shown) [Example B-2350], 38.0% @. Same read-out and setting: the result for `CCOC(=O)CC(NC(=O)Cn1nc(-c2ccc(F)cc2)c(-c2ccncc2)c1C)C(=O)OCC` (stereo not shown) [Example B-2352] reads 37.0% @. `CC[C@H](C)[C@H](NC(=O)Cn1nc(-c2ccc(F)cc2)c(-c2ccncc2)c1C)C(=O)OC` [Example B-2353]: the “P38 alpha kinase % inhib @ conc.” value was 38.0% @.

As to `Cc1c(-c2ccncc2)c(-c2ccc(F)cc2)nn1CC(=O)NC1CCN(CCc2c[nH]c3ccccc23)CC1` [Example B-2355], the “P38 alpha kinase % inhib @ conc.” value was determined as 84.0% @. Still for that read-out and setting: for `CCCC(CCC)NC(=O)Cn1nc(-c2ccc(F)cc2)c(-c2ccncc2)c1C` [Example B-2356] the value was 77.0% @; for `CCN1CC(NC(=O)Cn2nc(-c3ccc(F)cc3)c(-c3ccncc3)c2C)CN1CC` [Example B-2357], 47.0% @; for `CCCN(CCC)CC(C)NC(=O)Cn1nc(-c2ccc(F)cc2)c(-c2ccncc2)c1C` (stereo not shown) [Example B-2358], 17.0% @.

Consider `COC(=O)[C@H](COCc1ccccc1)NC(=O)Cn1nc(-c2ccc(F)cc2)c(-c2ccncc2)c1C` [Example B-2359], for which the “P38 alpha kinase % inhib @ conc.” value worked out at 76.0% @.

Take `COC(=O)C(Cc1cn(C)cn1)NC(=O)Cn1nc(-c2ccc(F)cc2)c(-c2ccncc2)c1C` (stereo not shown) [Example B-2361]: the “P38 alpha kinase % inhib @ conc.” value is reported as 19.0% @. Still for that read-out and setting: the result for `COC(=O)[C@H](CC(C)C)NC(=O)Cn1nc(-c2ccc(F)cc2)c(-c2ccncc2)c1C` [Example B-2364] reads 47.0% @; that for `COC(=O)C(NC(=O)Cn1nc(-c2ccc(F)cc2)c(-c2ccncc2)c1C)C(C)C` (stereo not shown) [Example B-2365], 82.0% @. With `Cc1c(-c2ccncc2)c(-c2ccc(F)cc2)nn1CC(=O)N1CCOCC1` [Example B-2366], the “P38 alpha kinase % inhib @ conc.” value stood at 70.0% @. The same measure, in the same setting: the result for `CCN(Cc1c(F)cccc1Cl)C(=O)Cn1nc(-c2ccc(F)cc2)c(-c2ccncc2)c1C` [Example B-2367] reads 46.0% @; that for `CCN1CCN(C(=O)Cn2nc(-c3ccc(F)cc3)c(-c3ccncc3)c2C)CC1` [Example B-2368], 65.0% @. Same read-out and setting: the result for `COCCN(C)C(=O)Cn1nc(-c2ccc(F)cc2)c(-c2ccncc2)c1C` [Example B-2374] reads 35.0% @; that for `Cc1c(-c2ccncc2)c(-c2ccc(F)cc2)nn1CC(=O)N(C)CCc1ccccc1` [Example B-2376], 32.0% @. On the same count and under the same terms, the result for `Cc1c(-c2ccncc2)c(-c2ccc(F)cc2)nn1CC(=O)N(Cc1ccco1)CC(C)C` [Example B-2378] reads 48.0% @.

As to `Cc1c(-c2ccncc2)c(-c2ccc(F)cc2)nn1CC(=O)N1CCSC1` [Example B-2383], the “P38 alpha kinase % inhib @ conc.” value amounted to 63.0% @. As to `Cc1c(-c2ccncc2)c(-c2ccc(F)cc2)nn1CC(=O)N(C)CCc1ccncc1` [Example B-2386], the “P38 alpha kinase IC50, uM or % inhib @ conc. (uM): % inhib” value (from here on “P38 alpha kinase IC50 … % inhib”) is given as 38.0% @. Same read-out and setting: for `CCOC(=O)CN(Cc1ccccn1)C(=O)Cn1nc(-c2ccc(F)cc2)c(-c2ccncc2)c1C` [Example B-2390] the value was 34.0% @; for `CCN(CC)C1CCN(C(=O)Cn2nc(-c3ccc(F)cc3)c(-c3ccncc3)c2C)C1` (stereo not shown) [Example B-2391], 40.0% @. For `COCCN(CC1CCCCC1)C(=O)Cn1nc(-c2ccc(F)cc2)c(-c2ccncc2)c1C` [Example B-2392], the “P38 alpha kinase IC50 … % inhib” value turned out to be 63.0% @.

For `Cc1c(-c2ccncc2)c(-c2ccc(F)cc2)nn1CC(=O)N(C)CC(N)=O` [Example B-2400], the “P38 alpha kinase IC50 … % inhib” value is on record as 60.0% @. Same read-out and setting: for `Cc1c(-c2ccncc2)c(-c2ccc(F)cc2)nn1CC(=O)N1CCCCC1` [Example B-2401] the value was 78.0% @. On to `Cc1c(-c2ccncc2)c(-c2ccc(F)cc2)nn1CC(=O)N(CCc1ccccc1)CCc1ccccn1` [Example B-2402], for which the “P38 alpha kinase IC50 … % inhib” value was 43.0% @. Still for that read-out and setting: for `Cc1c(-c2ccncc2)c(-c2ccc(F)cc2)nn1CC(=O)N1CCSC1c1ccco1` (stereo not shown) [Example B-2409] the value was 78.0% @. Take `Cc1c(-c2ccncc2)c(-c2ccc(F)cc2)nn1CC(=O)N1Cc2ccsc2CC1c1ccc(Cl)cc1` (stereo not shown) [Example B-2410]: the “P38 alpha kinase IC50 … % inhib” value worked out at 33.0% @. As for `Cc1c(-c2ccncc2)c(-c2ccc(F)cc2)nn1CC(=O)N1CCC(N(C)C(=O)OC(C)(C)C)C1` (stereo not shown) [Example B-2413], the “P38 alpha kinase IC50 … % inhib” value amounted to 75.0% @.

Take `COc1ccc2nc(NC(=O)Cn3nc(-c4ccc(F)cc4)c(-c4ccncc4)c3C)sc2c1` [Example B-2414]: the “P38 alpha kinase IC50 … % inhib” value is given as 86.0% @. `Cc1c(-c2ccncc2)c(-c2ccc(F)cc2)nn1CC(=O)Nc1ccc(Cl)nc1` [Example B-2415]: the “P38 alpha kinase IC50 … % inhib” value is 94.0% @. Still for that read-out and setting: the result for `Cc1c(-c2ccncc2)c(-c2ccc(F)cc2)nn1CC(=O)Nc1ccccc1` [Example B-2416] reads 85.0% @; that for `Cc1c(-c2ccncc2)c(-c2ccc(F)cc2)nn1CC(=O)Nc1ccc(Cl)cc1` [Example B-2418], 88.0% @.

Still in this test, the particulars now being: @ 100.0 uM.
With `Cc1c(-c2ccncc2)c(-c2ccc(F)cc2)nn1CC(=O)N(C)Cc1ccccc1` [Example B-2370], the “P38 alpha kinase % inhib @ conc.” value amounted to 73% @.

In the case of `Cc1c(-c2ccncc2)c(-c2ccc(F)cc2)nn1CC(=O)N1CCCC1` [Example B-2379], the “P38 alpha kinase % inhib @ conc.” value turned out to be 73.0% @. On the same count and under the same terms, the result for `CC(=O)N1CCN(C(=O)Cn2nc(-c3ccc(F)cc3)c(-c3ccncc3)c2C)CC1` [Example B-2380] reads 81% @. For `COc1ccc(CCN(CCC#N)C(=O)Cn2nc(-c3ccc(F)cc3)c(-c3ccncc3)c2C)cc1OC` [Example B-2403], the “P38 alpha kinase IC50 … % inhib” value is recorded as 72% @. For the molecule `Cc1c(-c2ccncc2)c(-c2ccc(F)cc2)nn1CC(=O)N(CCC#N)CC1CCCO1` (stereo not shown) [Example B-2404], the “P38 alpha kinase IC50 … % inhib” value turned out to be 58% @.

On to `CCN(CC)CCN(CCN(CC)CC)C(=O)Cn1nc(-c2ccc(F)cc2)c(-c2ccncc2)c1C` [Example B-2407], for which the “P38 alpha kinase IC50 … % inhib” value is on record as 47% @.

The test is the same for the next values; noted with them: in vitro P38-alpha kinase; read-out: P38 alpha kinase IC50.
As to `Cc1c(-c2ccncc2)c(-c2ccc(F)cc2)nn1CC(=O)NCCC1=CCCCC1` [Example B-2316], the negative logarithm of the IC50 (pIC50) (as a rule, the negative decadic logarithm of the IC50, by convention in mol/L) was 6.34.

`Cc1c(-c2ccncc2)c(-c2ccc(F)cc2)nn1CC(=O)NCC(=O)c1ccccc1` [Example B-2317]: the pIC50 is 6.00.
